Legend:
Type in all cases: cell-based
Aspergillus fumigatus = experiment: Antifungal activity in vitro, resazurin growth inhibition: Aspergillus fumigatus (B42928)
How it was run: (§1)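 Compound dilutions, with 64 μM as the highest in-test level, are spotted onto plates, then an inoculum of 10^3 cfu in RPMI-1640 plus 2% glucose (MOPS, pH 7.0±0.1) is added. Plates are incubated at species-dependent time and temperature, up to a week or more at 27° C. for dermatophytes.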

Trichophyton rubrum = experiment: Antifungal activity in vitro, resazurin growth inhibition: Trichophyton rubrum (B68183)
How it was run: (§2)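 Broth microdilution: RPMI-1640/L-Gln/2% glucose, MOPS pH 7.0±0.1; 10^3 cfu/well; top concentration 64 μM, 2- or 4-fold steps. Dermatophytes at 27° C., one week or more. Resazurin 0.005% (w/v) added, fluorescence 550/590 nm.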

Scedosporium prolificans = experiment: Antifungal activity in vitro, resazurin growth inhibition: Scedosporium prolificans (IHEM21157)
How it was run: as §1

Microsporum canis = experiment: Antifungal activity in vitro, resazurin growth inhibition: Microsporum canis (B68128)
How it was run: as §2

Scedosporium apiospermum = experiment: Antifungal activity in vitro, resazurin growth inhibition: Scedosporium apiospermum (IHEM3817)
How it was run: as §1

Rhizopus oryzae = experiment: Antifungal activity in vitro, resazurin growth inhibition: Rhizopus oryzae (IHEM5223)
How it was run: as §1

Candida parapsilosis = experiment: Antifungal activity in vitro, resazurin growth inhibition: Candida parapsilosis (B66126)
How it was run: as §1

Rhizomucor miehei = experiment: Antifungal activity in vitro, resazurin growth inhibition: Rhizomucor miehei (IHEM13391)
How it was run: as §1

Sporothrix schenkii = experiment: Antifungal activity in vitro, resazurin growth inhibition: Sporothrix schenkii (B62482)
How it was run: as §1

[1] = test system: Trichophyton mentagrophytes; experiment: Antifungal activity in vitro, resazurin growth inhibition: Trichophyton mentagrophytes (B70554)
How it was run: as §2

Cryptococcus neoformans = experiment: Antifungal activity in vitro, resazurin growth inhibition: Cryptococcus neoformans (B66663)
How it was run: as §1

SMILES | Inf. E: Aspergillus fumigatus B42928, pIC50 (Aspergillus fumigatus) | Inf. C: Trichophyton rubrum B68183, pIC50 (Trichophyton rubrum) | Inf. I: Scedosporium prolificans IHEM21157, pIC50 (Scedosporium prolificans) | Inf. B: Microsporum canis B68128, pIC50 (Microsporum canis) | Inf. H: Scedosporium apiospermum IHEM3817, pIC50 (Scedosporium apiospermum) | Inf. J: Rhizopus oryzae IHEM5223, pIC50 (Rhizopus oryzae) | Inf. D: Candida parapsilosis B66126, pIC50 (Candida parapsilosis) | Inf. K: Rhizomucor miehei IHEM13391, pIC50 (Rhizomucor miehei) | Inf. A: Sporothrix schenkii B62482, pIC50 (Sporothrix schenkii) | Inf. G: Trichophyton mentagrophytes B70554, pIC50 [1] | Inf. F: Cryptococcus neoformans B66663, pIC50 (Cryptococcus neoformans) | also measured
Clc1cc(C2=NCc3c(Cl)cccc3-n3cccc32)cnc1Cl [Compound 79] | 6.63 | 6.33 | 6.28 | 5.72 | 6.12 | <4.19 | 4.69 | <4.19 | <4.19 | 5.76 | <4.19 | 
Cc1cccc2c1-n1cccc1C(c1cc3ccccc3s1)NC2.Cl (racemic) [Compound 55] | 5.55 | 6.30 | 5.47 | 5.70 | 4.86 | <4.19 | <4.19 | <4.19 | 5.04 | 5.72 | 5.32 | 
Cc1cccc2c1CNC(c1cc3cc(Cl)ccc3o1)c1cccn1-2.Cl (racemic) [Compound 34] | <4.19 | 6.72 | 5.66 | 6.40 | <4.19 | <4.19 | <4.19 | <4.19 | <4.19 | 6.22 | <4.19 | 
Cc1cccc2c1CN=C(c1cc3ccccc3s1)c1cccn1-2 [Compound 2] |  |  |  |  |  |  |  |  |  |  |  | IC50 (Aspergillus fumigatus; read-out: Inf. E: Aspergillus fumigatus B42928, pIC50 (converted)): 2000 nM; IC50 (Trichophyton rubrum; read-out: Inf. C: Trichophyton rubrum B68183, pIC50 (converted)): 166 nM; IC50 (Scedosporium prolificans; Lomentospora prolificans, read-out: Inf. I: Scedosporium prolificans IHEM21157, pIC50 (converted)): 1620 nM; IC50 (Microsporum canis; read-out: Inf. B: Microsporum canis B68128, pIC50 (converted)): 331 nM; IC50 (Scedosporium apiospermum; read-out: Inf. H: Scedosporium apiospermum IHEM3817, pIC50 (converted)): 525 nM; IC50 (Rhizopus oryzae; Rhizopus arrhizus, read-out: Inf. J: Rhizopus oryzae IHEM5223, pIC50 (converted)): > 64600 nM; IC50 (Candida parapsilosis; Lodderomyces parapsilosis, read-out: Inf. D: Candida parapsilosis B66126, pIC50 (converted)): > 64600 nM; IC50 (Rhizomucor miehei; read-out: Inf. K: Rhizomucor miehei IHEM13391, pIC50 (converted)): > 64600 nM; IC50 (Sporothrix schenkii; read-out: Inf. A: Sporothrix schenkii B62482, pIC50 (converted)): 646 nM; IC50 ([1]; read-out: Inf. G: Trichophyton mentagrophytes B70554, pIC50 (converted)): 427 nM; IC50 (Cryptococcus neoformans; read-out: Inf. F: Cryptococcus neoformans B66663, pIC50 (converted)): 2000 nM
Cc1cccc2c1CN=C(c1ccc(C(F)(F)F)nc1)c1cccn1-2 [Compound 88] | <4.19 | 7.10 | 6.14 | 6.63 | 5.28 | <4.19 | <4.19 | <4.19 | 4.85 | 5.80 | <4.19 | 
CC(F)(F)c1ccc(C2=NCc3c(F)cccc3-n3cccc32)cn1 [Compound 83] | 5.33 | 6.68 | 6.09 | 4.97 | <4.19 | <4.19 | <4.19 | <4.19 | <4.19 | 5.88 | <4.19 | 

Second part, led by results:

Inf. E: Aspergillus fumigatus B42928, pIC50 (Aspergillus fumigatus) | Inf. C: Trichophyton rubrum B68183, pIC50 (Trichophyton rubrum) | Inf. I: Scedosporium prolificans IHEM21157, pIC50 (Scedosporium prolificans) | Inf. B: Microsporum canis B68128, pIC50 (Microsporum canis) | Inf. H: Scedosporium apiospermum IHEM3817, pIC50 (Scedosporium apiospermum) | Inf. J: Rhizopus oryzae IHEM5223, pIC50 (Rhizopus oryzae) | Inf. D: Candida parapsilosis B66126, pIC50 (Candida parapsilosis) | Inf. K: Rhizomucor miehei IHEM13391, pIC50 (Rhizomucor miehei) | Inf. A: Sporothrix schenkii B62482, pIC50 (Sporothrix schenkii) | Inf. G: Trichophyton mentagrophytes B70554, pIC50 [1] | Inf. F: Cryptococcus neoformans B66663, pIC50 (Cryptococcus neoformans) | SMILES | also measured
6.29 | 6.87 | 6.64 | 6.33 | 5.45 | <4.19 | <4.19 | <4.19 | <4.19 | 6.34 | 5.18 | Clc1cccc2c1CN=C(c1cc3cccc(Cl)c3o1)c1cccn1-2 [Compound 126] | 
5.52 | 6.82 | 6.15 | 6.96 | 5.97 | 5.77 | <4.19 | 5.58 | 6.11 | 6.86 | <4.19 | Clc1ccc2oc(C3=NCc4c(Cl)cccc4-n4cccc43)cc2c1 [Compound 121] | 
5.05 | 6.84 | 5.18 | 6.34 | <4.19 | <4.19 | <4.19 | <4.19 | 4.59 | 6.01 | <4.19 | FC(F)(F)c1ncc(C2=NCc3c(Cl)cccc3-n3cccc32)cn1 [Compound 102] | 
6.85 | 7.36 | 5.56 | 6.90 | 5.08 | 5.07 | 6.17 | 5.14 | 5.70 | 7.11 | 6.41 | Fc1cccc2c1CN=C(c1ccc3sccc3c1)c1cccn1-2 [Compound 175] | 
6.26 | 6.85 | 5.15 | 6.34 | 4.28 | <4.19 | 5.59 | <4.19 | 5.11 | 6.46 | 5.82 | Clc1cccc2c1CN=C(c1ccc3occ(Cl)c3c1)c1cccn1-2 [Compound 152] | 
6.30 | 6.87 | 6.17 | 6.54 | <4.19 | <4.19 | 5.61 | <4.19 | 6.00 | 6.62 | 6.40 | Clc1ccc2c(c1)-n1cccc1C(c1cc3ccccc3o1)=NC2 [Compound 119] | 
5.99 | 6.31 | 5.52 | 6.16 | 4.19 | <4.19 | <4.19 | <4.19 | 4.86 | 5.81 | 5.52 | Clc1cc(Cl)c2c(c1)-n1cccc1C(c1cc3ccccc3o1)=NC2 [Compound 120] | 
<4.19 | 6.86 | 5.05 | 6.88 | <4.19 | <4.19 | <4.19 | <4.19 | <4.19 | 7.64 | <4.19 | COc1cccc2cc(C3=NCc4c(Cl)cccc4-n4cccc43)oc12 [Compound 141] | 
5.61 | 6.71 | 6.27 | 6.14 | 5.63 | 4.98 | 5.12 | 5.06 | 5.59 | 5.99 | 6.51 | c1ccc2c(c1)CN=C(c1cc3ccccc3s1)c1cccn1-2 [Compound 163] | 
